{"source": "patent US8168860B2", "about": "“Compositions and methods for the modification of physiological responses in plants” (Rohm and Haas Company, priority 2007, dated 2012)", "key": {"[1]": {"system": "tomato seedlings p1002-18-3", "experiment": "Transient induction: tomato seedlings on 20 μM ACC, inducer removed after 2-14 days", "assay_type": "in vivo", "settings": "for Hypocotyl (mm) / Root (mm) / Hypocotyl Percent (%) / Root Percent (%): p1002-18-3 tomato; for Hypocotyl (mm) / Root (mm): dark, 14 day old seedlings", "protocol": "After 14 days growth in the dark, hypocotyls and roots were measured to assess ethylene insensitivity. Ethylene insensitive seedlings would be expected to have longer hypocotyls and roots. […] Thus, root and hypocotyl growth of the reversed seedlings should be intermediate between the sensitive and insensitive seedlings."}, "[2]": {"system": "tomato seedlings (WT, p1002-18, p1003-16)", "experiment": "Tomato seedling growth on 20 μM ACC and various levels of inducer", "assay_type": "in vivo", "settings": "20 μM ACC; for Hypocotyl (mm) / Root (mm): 10 day old seedlings", "protocol": "Homozygous tomato seeds from one p1002 containing and one p1003 containing line were germinated on medium containing 20 μM ACC and various levels of inducer (i.e., 0.5-20 μM)."}, "[3]": {"system": "ACC oxidase", "experiment": "ACC oxidase expression in excised corn stalk sheath tissue, quantitative PCR", "assay_type": "cell-based", "settings": "normalized to 0 inducer/0 ACC", "protocol": "Corn plants were transformed using the plasmids for Example 1 by microparticle bombardment. Putative transformants were selected using either actinonin or bialaphos and confirmed by PCR analysis. Positive transformants were backcrossed to inbred B73 to increase vigor. Transgenic corn plants produced as described above were tested for modulation of ethylene sensitivity. Modulation of ethylene sensitivity was determined at the molecular level by exposing plants to ethylene and measuring the change in induction of ethylene-induced genes.\nTransgenic corn plants produced as described above were tested for modulation of ethylene sensitivity. Modulation of ethylene sensitivity was determined at the molecular level by exposing plants to ACC, the precursor of ethylene and measuring the change in induction of ethylene-induced genes. Stalk sheath tissue was excised from transgenic T0 corn plants growing in a green house and used in an in vitro bioassay. Excised tissue was treated with either water or 20 μM inducer for 2 days to induce expression of the ethylene insensitive etr1-1 transgene. Following the 2 day induction period, the tissue was treated for one day with 0, 1 or 10 μM ACC to produce ethylene and then harvested. Harvested tissue was immediately placed in RNAlater (Ambion). Total RNA was prepared from the tissue using MagMAX-96 Total RNA Isolation Kit (Ambion). Induction of an ethylene inducible gene (ACC oxidase) was measured using quantitative PCR on an Applied Biosystems 7900 HT Fast Real-Time PCR system (ABI). TaqMan Assay Kit (ABI) was used for reverse transcriptase (RT) and PCR using manufacturer recommended protocols. Corn 18s was used as an internal control to normalize expression for each sample.\nSequences for the primers and probes were as follows: […]\nIn order to determine gene expression, ACC oxidase expression in the 0 μM inducer plus 0 μM ACC control treatment was normalized for each respective corn line."}, "[4]": {"settings": "10 μM inducer, 2 days with inducer, 12 days without, 20 μM ACC"}, "[5]": {"settings": "10 μM inducer, 2 days with inducer, 12 days without, relative to 14 days with inducer"}, "[6]": {"settings": "10 μM inducer, 4 days with inducer, 10 days without, 20 μM ACC"}, "[7]": {"settings": "10 μM inducer, 4 days with inducer, 10 days without, relative to 14 days with inducer"}, "[8]": {"settings": "10 μM inducer, 6 days with inducer, 8 days without, 20 μM ACC"}, "[9]": {"settings": "10 μM inducer, 6 days with inducer, 8 days without, relative to 14 days with inducer"}, "[10]": {"settings": "10 μM inducer, 8 days with inducer, 6 days without, 20 μM ACC"}, "[11]": {"settings": "10 μM inducer, 8 days with inducer, 6 days without, relative to 14 days with inducer"}, "[12]": {"settings": "10 μM inducer, 14 days with inducer, 0 days without (reference)"}, "[13]": {"settings": "10 μM inducer, 14 days with inducer, 0 days without, 20 μM ACC"}, "[14]": {"settings": "p1002-18 tomato, Inducer 0.5 μM"}, "[15]": {"settings": "p1002-18 tomato, Inducer 2.5 μM"}, "[16]": {"settings": "p1003-16 tomato, Inducer 0.5 μM"}, "[17]": {"settings": "p1003-16 tomato, Inducer 2.5 μM"}}, "data": [{"compound": "CCC(N(NC(=O)c1ccc2c(c1C)O[C@@H](CO)CO2)C(=O)c1cc(C)cc(C)c1)C(C)(C)C", "note": "(stereo partly drawn) [inducer, 3,5 Dimethyl-benzoic acid N-(1-ethyl-2,2-dimethyl-propyl)-N′-(3S-hydroxymethyl-5-methyl-2,3-dihydro-benzo[1,4]dioxine-6-carbonyl)hydrazide]", "values": [{"measurement": "Hypocotyl (mm)", "setting": "[1]; [4]", "value": "16.9 ± 4.30", "unit": "mm"}, {"measurement": "Root (mm)", "setting": "[1]; [4]", "value": "26.2 ± 15.3", "unit": "mm"}, {"measurement": "Hypocotyl Percent (%)", "setting": "[1]; [5]", "value": 63.8, "unit": "%"}, {"measurement": "Root Percent (%)", "setting": "[1]; [5]", "value": 69.9, "unit": "%"}, {"measurement": "Hypocotyl (mm)", "setting": "[1]; [6]", "value": "19.5 ± 7.52", "unit": "mm"}, {"measurement": "Root (mm)", "setting": "[1]; [6]", "value": "28.7 ± 14.7", "unit": "mm"}, {"measurement": "Hypocotyl Percent (%)", "setting": "[1]; [7]", "value": 73.6, "unit": "%"}, {"measurement": "Root Percent (%)", "setting": "[1]; [7]", "value": 76.5, "unit": "%"}, {"measurement": "Hypocotyl (mm)", "setting": "[1]; [8]", "value": "26.8 ± 6.27", "unit": "mm"}, {"measurement": "Root (mm)", "setting": "[1]; [8]", "value": "29.8 ± 9.61", "unit": "mm"}, {"measurement": "Hypocotyl Percent (%)", "setting": "[1]; [9]", "value": 101, "unit": "%"}, {"measurement": "Root Percent (%)", "setting": "[1]; [9]", "value": 79.5, "unit": "%"}, {"measurement": "Hypocotyl (mm)", "setting": "[1]; [10]", "value": "26.0 ± 10.3", "unit": "mm"}, {"measurement": "Root (mm)", "setting": "[1]; [10]", "value": "38.3 ± 9.15", "unit": "mm"}, {"measurement": "Hypocotyl Percent (%)", "setting": "[1]; [11]", "value": 98.1, "unit": "%"}, {"measurement": "Root Percent (%)", "setting": "[1]; [11]", "value": 102, "unit": "%"}, {"measurement": "Hypocotyl Percent (%)", "setting": "[1]; [12]", "value": 100, "unit": "%"}, {"measurement": "Root Percent (%)", "setting": "[1]; [12]", "value": 100, "unit": "%"}, {"measurement": "Hypocotyl (mm)", "setting": "[1]; [13]", "value": "26.5 ± 7.51", "unit": "mm"}, {"measurement": "Root (mm)", "setting": "[1]; [13]", "value": "37.5 ± 13.2", "unit": "mm"}, {"measurement": "duration of induction sufficient for a full state of ethylene insensitivity", "setting": "[1]; tomato p1002 line, 10 μM inducer, 20 μM ACC", "value": "Six days was sufficient to induce a full state of ethylene insensitivity"}, {"measurement": "reversal after removal of inducer", "setting": "[1]; tomato p1002 line, induced for 2 or 4 days then removed from inducer, compared to non-induced control", "value": "showed return to a state of ethylene sensitivity"}, {"measurement": "Hypocotyl (mm)", "setting": "[2]; WT tomato, Inducer 20 μM", "value": "6.24 ± 2.75", "unit": "mm"}, {"measurement": "Root (mm)", "setting": "[2]; WT tomato, Inducer 20 μM", "value": "9.06 ± 14.8", "unit": "mm"}, {"measurement": "Hypocotyl (mm)", "setting": "[2]; [14]", "value": "8.40 ± 6.29", "unit": "mm"}, {"measurement": "Root (mm)", "setting": "[2]; [14]", "value": "12.0 ± 13.3", "unit": "mm"}, {"measurement": "Hypocotyl (mm)", "setting": "[2]; p1002-18 tomato, Inducer 1 μM", "value": "11.1 ± 7.41", "unit": "mm"}, {"measurement": "Root (mm)", "setting": "[2]; p1002-18 tomato, Inducer 1 μM", "value": "16.5 ± 16.6", "unit": "mm"}, {"measurement": "Hypocotyl (mm)", "setting": "[2]; [15]", "value": "13.5 ± 8.97", "unit": "mm"}, {"measurement": "Root (mm)", "setting": "[2]; [15]", "value": "16.0 ± 16.6", "unit": "mm"}, {"measurement": "Hypocotyl (mm)", "setting": "[2]; p1002-18 tomato, Inducer 5 μM", "value": "14.5 ± 7.75", "unit": "mm"}, {"measurement": "Root (mm)", "setting": "[2]; p1002-18 tomato, Inducer 5 μM", "value": "15.2 ± 8.39", "unit": "mm"}, {"measurement": "Hypocotyl (mm)", "setting": "[2]; p1002-18 tomato, Inducer 10 μM", "value": "19.8 ± 10.8", "unit": "mm"}, {"measurement": "Root (mm)", "setting": "[2]; p1002-18 tomato, Inducer 10 μM", "value": "22.7 ± 13.5", "unit": "mm"}, {"measurement": "Hypocotyl (mm)", "setting": "[2]; p1002-18 tomato, Inducer 20 μM", "value": "26.3 ± 11.9", "unit": "mm"}, {"measurement": "Root (mm)", "setting": "[2]; p1002-18 tomato, Inducer 20 μM", "value": "33.3 ± 12.8", "unit": "mm"}, {"measurement": "Hypocotyl (mm)", "setting": "[2]; [16]", "value": "17.0 ± 6.46", "unit": "mm"}, {"measurement": "Root (mm)", "setting": "[2]; [16]", "value": "14.4 ± 15.3", "unit": "mm"}, {"measurement": "Hypocotyl (mm)", "setting": "[2]; p1003-16 tomato, Inducer 1 μM", "value": "20.9 ± 10.7", "unit": "mm"}, {"measurement": "Root (mm)", "setting": "[2]; p1003-16 tomato, Inducer 1 μM", "value": "10.3 ± 12.7", "unit": "mm"}, {"measurement": "Hypocotyl (mm)", "setting": "[2]; [17]", "value": "20.1 ± 8.77", "unit": "mm"}, {"measurement": "Root (mm)", "setting": "[2]; [17]", "value": "9.19 ± 8.98", "unit": "mm"}, {"measurement": "Hypocotyl (mm)", "setting": "[2]; p1003-16 tomato, Inducer 5 μM", "value": "23.6 ± 11.4", "unit": "mm"}, {"measurement": "Root (mm)", "setting": "[2]; p1003-16 tomato, Inducer 5 μM", "value": "20.2 ± 14.9", "unit": "mm"}, {"measurement": "Hypocotyl (mm)", "setting": "[2]; p1003-16 tomato, Inducer 10 μM", "value": "25.9 ± 8.77", "unit": "mm"}, {"measurement": "Root (mm)", "setting": "[2]; p1003-16 tomato, Inducer 10 μM", "value": "29.1 ± 12.4", "unit": "mm"}, {"measurement": "Hypocotyl (mm)", "setting": "[2]; p1003-16 tomato, Inducer 20 μM", "value": "27.5 ± 9.10", "unit": "mm"}, {"measurement": "Root (mm)", "setting": "[2]; p1003-16 tomato, Inducer 20 μM", "value": "25.6 ± 11.4", "unit": "mm"}, {"measurement": "relation of inducer concentration to level of ethylene insensitivity", "setting": "[2]; tomato p1002 and p1003 line, inducer 0.5-20 μM", "value": "directly related to the level of ethylene insensitivity"}, {"measurement": "ACC Oxidase Expression (relative)", "setting": "[3]; Corn Line 4.5, 20 μM inducer/0 ACC", "value": 1.351}, {"measurement": "ACC Oxidase Expression (relative)", "setting": "[3]; Corn Line 4.5, 20 μM inducer/1 μM ACC", "value": 1.081}, {"measurement": "ACC Oxidase Expression (relative)", "setting": "[3]; Corn Line 4.5, 20 μM inducer/10 μM ACC", "value": 0.4184}, {"measurement": "ACC Oxidase Expression (relative)", "setting": "[3]; Corn Line 4.6, 20 μM inducer/0 ACC", "value": 1.148}, {"measurement": "ACC Oxidase Expression (relative)", "setting": "[3]; Corn Line 4.6, 20 μM inducer/1 μM ACC", "value": 0.7581}, {"measurement": "ACC Oxidase Expression (relative)", "setting": "[3]; Corn Line 4.6, 20 μM inducer/10 μM ACC", "value": 0.3348}, {"measurement": "ACC Oxidase Expression (relative)", "setting": "[3]; Corn Line 4.7, 20 μM inducer/0 ACC", "value": 0.7452}, {"measurement": "ACC Oxidase Expression (relative)", "setting": "[3]; Corn Line 4.7, 20 μM inducer/1 μM ACC", "value": 1.388}, {"measurement": "ACC Oxidase Expression (relative)", "setting": "[3]; Corn Line 4.7, 20 μM inducer/10 μM ACC", "value": 0.2557}, {"measurement": "ACC Oxidase Expression (relative)", "setting": "[3]; Corn Line 10.2, 20 μM inducer/0 ACC", "value": 1.378}]}]}
